Data as given in patent US11992497B2 (priority 2021, dated 2024).
Where two headings read alike, the source gives them in different places.

Legend:
[1] = Hepatocyte stability and metabolite profiling; assay type: in vitro ADME, dog; details: cryopreserved hepatocytes in suspension; Dog cryopreserved hepatocytes
Procedure: (§1) The objective of this study was to investigate the stability of the test compound, CBG, in human, rat, dog, mouse, monkey and minipig cryopreserved hepatocytes. Follow-on metabolite profiling was performed.
(§2) CBG was incubated up to 2 hr with cryopreserved hepatocytes. Cryopreserved hepatocytes in suspension were added to test compound in supplemented media following pre-incubation to initiate the reaction and the reactions were stopped by organic solvent at the appropriate time points. The termination plates were centrifuged and sample supernatants were analysed using Cyprotex generic LC MS/MS conditions to generate intrinsic clearance values for CBG. Two control compounds for each species were included in the assay and if the values for these compounds were not within the specified limits the results were rejected and the experiment repeated.
(§3) Following the hepatocyte stability assay the samples were 59tilized for metabolite profiling using suitable high-resolution LC-MS/MS conditions. The 40 and 60 minute human samples, 20 and 120 minute rat samples, 10 and 20 minute dog and monkey samples, 20 and 60 minute mouse samples, and 40 and 120 minute minipig samples were compared against the 0 minute control sample to establish which and how many metabolites were formed. […] No further analysis was carried out with the mouse species.
(§4) The areas and percentages reported for the parent and metabolites were calculated using the XIC data. Metabolite observed at greater than 1% of the total of drug related material are reported. […] For accuracy, a ppm error of less than 5 is desirable; when the response for a metabolite observed is low the ppm error maybe greater than 5. Where a metabolite has been referred to as a potential oxidation it can refer to a potential hydroxylation, epoxidation or oxide formation. Representative collision induced dissociation (CID) mass spectra were obtained for the metabolites found.

[2] = tested on: cryopreserved hepatocytes; experiment: Hepatocyte stability and metabolite profiling; assay type: in vitro ADME, dog; details: dog hepatocyte samples
Procedure: as §1, §2, §3, §4

[3] = Hepatocyte stability and metabolite profiling; assay type: in vitro ADME, minipig; details: cryopreserved hepatocytes in suspension; Minipig cryopreserved hepatocytes
Procedure: as §1, §2, §3, §4

[4] = tested on: cryopreserved hepatocytes; experiment: Hepatocyte stability and metabolite profiling; assay type: in vitro ADME, minipig; details: minipig hepatocyte samples
Procedure: as §1, §2, §3, §4

[5] = Hepatocyte stability and metabolite profiling; assay type: in vitro ADME, rat; details: cryopreserved hepatocytes in suspension; Rat cryopreserved hepatocytes
Procedure: as §1, §2, §3, §4

[6] = tested on: cryopreserved hepatocytes; experiment: Hepatocyte stability and metabolite profiling; assay type: in vitro ADME, rat; details: rat hepatocyte samples
Procedure: as §1, §2, §3, §4

[7] = Hepatocyte stability and metabolite profiling; assay type: in vitro ADME; details: cryopreserved hepatocytes in suspension; Mouse cryopreserved hepatocytes
Procedure: as §1, §2
Following the hepatocyte stability assay the samples were 59tilized for metabolite profiling using suitable high-resolution LC-MS/MS conditions. The 40 and 60 minute human samples, 20 and 120 minute rat samples, 10 and 20 minute dog and monkey samples, 20 and 60 minute mouse samples, and 40 and 120 minute minipig samples were compared against the 0 minute control sample to establish which and how many metabolites were formed. […]
The areas and percentages reported for the parent and metabolites were calculated using the XIC data. […]

[8] = Quantification of CBG in rat brain tissue (LC-MS/MS); assay type: in vivo, Sprague-Dawley rat; details: for concentration at 24 h: Sprague-Dawley, rat, brain, oral
Procedure: The purpose of this study was to quantify cannabigerol (CBG) in rat plasma and brain.
Seven- to nine-week-old male and female Sprague-Dawley received either a single dose or once daily dosing for 21 days of vehicle or CBG at three different dosage levels as shown in the Table below.
Approximately 0.2-0.25 mL blood was collected during the first 24 hours after the single dose, and at multiple times points after the terminal dose for the animals receiving daily dosing for 21 days. Liver, kidney, and colon samples were collected and fixed in 10% NBF for 48 hours, then stored in 70% ethanol at room temperature. Brain samples were collected and flash frozen.
Analytical curves were constructed using non-zero standards with CBG concentration ranging from 0.0025 to 2.500 μg/mL and 2.500-100.0 μg/mL in blank rat plasma samples and 1.0 to 2500 ng/mL in blank brain tissues. A blank sample was used to exclude contamination.
Instrument Used: AB SCIEX QTRAP 4500/Shimadzu Prominence LC

[9] = Hepatocyte stability and metabolite profiling; assay type: in vitro ADME, monkey; details: cryopreserved hepatocytes in suspension; Monkey cryopreserved hepatocytes
Procedure: as §1, §2, §3, §4

[10] = tested on: cryopreserved hepatocytes; experiment: Hepatocyte stability and metabolite profiling; assay type: in vitro ADME, monkey; details: monkey hepatocyte samples
Procedure: as §1, §2, §3, §4

UGT = UGT reaction phenotyping, all the UGTs combined; assay type: in vitro ADME, Human
Description: Experimental Summary: UGT Reaction Phenotyping (7 Isoforms).

[11] = tested on: p-cMyc(S62), cMyc, p-AKT(S473), AKT, p-ERK(T202/Y204), ERK; experiment: Target engagement Western blot in HCT116 cells; assay type: cell-based; details: 10-80 μM, 3 hours
Procedure: For Western blot, the compounds were tested at 4 concentrations for 3 hours on 3 colon cancer cell lines. The compounds, concentrations, colon cancer cell line panel, and antibodies panel tested are the following: • CBG: 0 μM, 10 μM, 20 μM, 40 μM, and 80 μM. • Compound 1: 0 μM, 10 μM, 20 μM, 40 μM, and 80 μM. • Compound 2: 0 μM, 10 μM, 20 μM, 40 μM, and 80 μM. • Colon cancer cell line panel: SW620, HCT15, HCT116 • Antibodies panel: p-cMYC(S62), cMyc, p-AKT(S473), AKT, p-ERK(T202/Y204), ERK Methods
Evaluation of target engagement was performed to determine the expression of specific marker protein expression and underlying signaling pathways with Western blot.
Western blot. Whole cell extracts were prepared by incubating cell pellets in IP lysis buffer supplemented with protease and phosphatase inhibitors (Roche). Isolated protein was quantified by Pierce BCA Protein assay (ThermoFisher). Equal quantities of protein were separated by 4-15% SDS-PAGE electrophoresis gels and transferred onto nitrocellulose membranes. Membranes was blocked with 5% nonfat milk in Tris-buffered saline-Tween buffer. […]

## CCCCCc1cc(O)c(C/C=C(\C)CCC=C(C)C)c(O)c1 [CBG, cannabigerol]
[1]
  half-life: 52.7 min
  hepatocyte CLint: 26.3 µL/min/1e6 cells
[2]
  number of metabolites observed: three
[3]
  half-life: 42.7 min
  hepatocyte CLint: 32.5 µL/min/1e6 cells
[4]
  number of metabolites observed: four
[5]
  half-life: 49 min
  hepatocyte CLint: 28.3 µL/min/1e6 cells
[6]
  number of metabolites observed: eight
[7]
  half-life: 42.2 min
  hepatocyte CLint: 32.8 µL/min/1e6 cells
[8]; CBG 10 mg/kg oral gavage once daily, 24 hrs post Rx
  CBG concentration in rat brain tissue (Day 21): BLQ (BLQ—Below Limit of Quantification (1.0 ng/g))
[8]; both sexes, 30 mg/kg, CBG 30 mg/kg oral gavage once daily, 24 hrs post Rx, read-out: CBG concentration in rat brain tissue (Day 21)
  concentration at 24 h: 43.8 ng/g
[8]; female, 100 mg/kg, CBG 100 mg/kg once daily, 24 hrs post Rx, female rats, read-out: CBG concentration in rat brain tissue (Day 21), Average
  concentration at 24 h: 299 ng/g
[8]; male, 100 mg/kg, CBG 100 mg/kg once daily, 24 hrs post Rx, male rats, read-out: CBG concentration in rat brain tissue (Day 21), Average
  concentration at 24 h: 540 ng/g
[8]; oral CBG, Day 21
  CBG in brain (in words): not detected
[9]
  half-life: 11.3 min
  hepatocyte CLint: 122 µL/min/1e6 cells
[10]
  number of metabolites observed: four

## CCCCCc1cc(O)c(C/C=C(\C)CCC=C(C)C)c(OC)c1 [Compound 1, (E)-2-(3,7-dimethylocta-2,6-dien-1-yl)-3-methoxy-5-pentylphenol]
UGT
  Total UGT activity relative to that observed with CBG: 23%
  share of total UGT activity associated with UGT1A9 and UGT2B7: 73%
[11]
  pAKT(S473) (Western blot): down-regulated pAKT(S473) in HCT116 cells with a dose effect
